Measured values taken from patent publication US9533026B2, “Polypeptide compounds for inhibiting angiogenesis and tumor growth” (VasGene Therapeutics, Inc., priority 2004, dated 2017).

How the values were obtained:
EphB4 = assay: EGF regulation of EphB4 in SCC15 cells with kinase inhibitors (Western blot); format: cell-based, human; conditions: for EGF stimulated induction of EphB4: serum-starved SCC15, 10 ng/ml EGF, 24 h; for basal levels of EphB4: serum-starved SCC15, 24 h
Protocol: B) SCC15 cells were serum-starved for 24 h prior to an additional 24 incubation as indicated with or without EGF (10 ng/ml), 3 μM U73122, or 5 μM SH-5, 5 μM SP600125, […] LY294002, - - μM PD098095 or 5 μM SB203580. N/A indicates cultures that received equal volume of diluent (DMSO) only. Cell lysates were subjected to Western Blot with EphB4 monoclonal antibody. β-actin signal serves as control of protein loading and transfer.

HUVEC = assay: Endothelial cell tube (cord) formation on Matrigel; format: cell-based, human
Protocol: Cord formation assay of HUVEC in Matrigel™ (upper row). Cells in exponential growth phase were treated overnight with the indicated concentrations of EphB4 extracellular domain (ECD) prior to plating on Matrigel™. Cells were trypsinized and plated (1×10^5 cells/well) in a 24-well plate containing 0.5 ml Matrigel™. Shown are representative 20× phase contrast fields of cord formation after 8 hr plating on Matrigel™ in the continued presence of the test compounds as shown. Original magnification 200×. KS-SLK cells treated in a similar manner (middle row) in a cord formation assay on Matrigel™. […] After 7 days the plugs were removed, sectioned and stained with H&E to visualize cells migrating into the matrix.
Matrigel (60 μl of 10 mg/ml; Collaborative Lab #35423) is placed in each well of an ice-cold 96-well plate. The plate is allowed to sit at room temperature for 15 minutes then incubated at 37° C. for 30 minutes to permit the matrigel to polymerize. In the mean time, HUVECs are prepared in EGM-2 (Clonetic #CC3162) at a concentration of 2×10^5 cells/ml. The test compound is prepared at 2× the desired concentration (5 concentration levels) in the same medium. Cells (500 μl) and 2× drug (500 μl) is mixed and 200 μl of this suspension are placed in duplicate on the polymerized matrigel. After 24 h incubation, triplicate pictures are taken for each concentration using a Bioquant Image Analysis system. Drug effect (IC50) is assessed compared to untreated controls by measuring the length of cords formed and number of junctions.
Matrigel (60 μl of 10 mg/ml; Collaborative Lab, Cat. No. 35423) was placed in each well of an ice-cold 96-well plate. The plate was allowed to sit at room temperature for 15 minutes then incubated at 37° C. for 30 minutes to permit Matrigel to polymerize. In the mean time, human umbilical vein endothelial cells were prepared in EGM-2 (Clonetic, Cat. No. CC3162) at a concentration of 2×10^5 cells/ml. The test protein was prepared at 2× the desired concentration (5 concentration levels) in the same medium. Cells (500 μl) and 2× protein (500 μl) were mixed and 200 μl of this suspension were placed in duplicate on the polymerized Matrigel. After 24 h incubation, triplicate pictures were taken for each concentration using a Bioquant Image Analysis system. Protein addition effect (IC50) was assessed compared to untreated controls by measuring the length of cords formed and number of junctions.

human endothelial cells = assay: Endothelial cell chemotaxis / migration (Boyden chamber); format: cell-based; conditions: umbilical cord and hepatic AECs or VECs; growth factor stimuli
Protocol: Migration is assessed using the 48-well Boyden chamber and 8 μm pore size collagen-coated (10 μg/ml rat tail collagen; Collaborative Laboratories) polycarbonate filters (Osmonics, Inc.). The bottom chamber wells receive 27-29 μl of DMEM medium alone (baseline) or medium containing chemo-attractant (bFGF, VEGF or Swiss 3T3 cell conditioned medium). The top chambers receive 45 μl of HUVEC cell suspension (1×10^6 cells/ml) prepared in DMEM+1% BSA with or without test compound. After 5 h incubation at 37° C., the membrane is rinsed in PBS, fixed and stained in Diff-Quick solutions. The filter is placed on a glass slide with the migrated cells facing down and cells on top are removed using a Kimwipe. The testing is performed in 4-6 replicates and five fields are counted from each well. Negative unstimulated control values are subtracted from stimulated control and drug treated values and data is plotted as mean migrated cell±S.D. IC50 is calculated from the plotted data.
Chemotaxis of HUVECs to VEGF was assessed using a modified Boyden chamber, transwell membrane filter inserts in 24 well plates, 6.5 mm diam, 8 μm pore size, 10 μm thick matrigel coated, polycarbonate membranes (BD Biosciences). The cell suspensions of HUVECs (2×10^5 cells/ml) in 200 μl of EBM were seeded in the upper chamber and the soluble EphB4 protein were added simultaneously with stimulant (VEGF or bFGF) to the lower compartment of the chamber and their migration across a polycarbonate filter in response to 10-20 ng/ml of VEGF with or without 100 nM-1 μM test compound was investigated. After incubation for 4-24 h at 37° C., the upper surface of the filter was scraped with swab and filters were fixed and stained with Diff Quick. Ten random fields at 200× mag were counted and the results expressed as mean # per field. Negative unstimulated control values were subtracted from stimulated control and protein treated sample values and the data was plotted as mean migrated cell±S.D. IC50 was calculated from the plotted data.

EphB4 receptor = assay: Cell-based EphB4 tyrosine kinase assay in PC3 cells; design: species or system human; conditions: Ephrin B2-Fc ligand preincubated with protein
Protocol: All four proteins were also tested for their ability to block ligand-dependent dimerization and activation of Eph B4 receptor kinase in PC3 cells. The PC3 human prostate cancer cell line is known to express elevated levels of human Eph B4. Stimulation of PC3 cells with Ephrin B2 IgG Fc fusion protein leads to a rapid induction of tyrosine phosphorylation of the receptor. However, preincubation of the ligand with GCF2, GCF1 or GC, but not CF2 proteins suppresses subsequent EphB4 autophosphorylation.
The human prostate carcinoma cell line PC3 cells were maintained in RPMI medium with 10% dialyzed fetal calf serum and 1% penicillin/streptomycin/neomycin antibiotics mix. Cells were maintained at 37° C. in a humidified atmosphere of 5% CO2/95% air. Typically, cells were grown in 60 mm dishes until confluency and were either treated with mouse Ephrin B2-Fc fusion at 1 μg/ml in RPMI for 10 min to activate EphB4 receptor or plain medium as a control. To study the effect of different derivatives of soluble EphB4 ECD proteins on EphB4 receptor activation, three sets of cells were used. In the first set, cells were treated with various proteins (5 proteins; GC, GCF1, GCF2, GCF2-F, CF2) at 5 μg/ml for 20 min. In the second set of cells, prior to application, proteins were premixed with ephrinB2-Fc at 1:5 (EphB4 protein:B2-Fc) molar ratio, incubated for 20 min and applied on cells for 10 min. In the third set of cells, cells were first treated with the proteins for 20 min at 5 μg/ml, media was replaced with fresh media containing 1 μg/ml of EphrinB2-Fc and incubated for another 10 min.
After the stimulation, cells were immediately harvested with protein extraction buffer containing 20 mM Tris-HCl, pH 7.4, 150 mM NaCl, 1% (v/v) Triton X100, 1 mM EDTA, 1 mM PMSF, 1 mM Sodium vanadate. Protein extracts were clarified by centrifugation at 14,000 rpm for 20 min at 4° C. Clarified protein samples were incubated overnight with protein A/G coupled agarose beads pre-coated with anti-EphB4 monoclonal antibodies. The IP complexes were washed twice with the same extraction buffer containing 0.1% Triton X100. The immunoprecipitated proteins were solubilized in 1×SDS-PAGE sample loading buffer and separated on 10% SDS-PAGE. For EphB4 receptor activation studies, electroblotted membrane was probed with anti-pTyr specific antibody 4G10 at 1:1000 dilution followed by Protein G-HRP conjugate at 1:5000 dilutions.

EphrinB2 = biological target: T1, EphrinB2 (Homo sapiens, UniProt P52799); assay: Ephrin B2-AP binding to immobilized EphB4EC proteins; conditions: B4 proteins immobilized on Ni2+-resin or nitrocellulose
T1 construct: protein fusion of Ephrin B2 ectodomain with placental alkaline phosphatase
T1 sequence (P52799 28-229 limits assumed): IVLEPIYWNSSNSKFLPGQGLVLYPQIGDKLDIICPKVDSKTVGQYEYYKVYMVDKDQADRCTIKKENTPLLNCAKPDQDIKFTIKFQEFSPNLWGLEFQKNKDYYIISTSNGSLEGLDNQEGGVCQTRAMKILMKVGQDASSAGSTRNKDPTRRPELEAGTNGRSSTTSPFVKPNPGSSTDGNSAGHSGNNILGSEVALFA
Protocol: 10 μl of Ni-NTA-Agarose were incubated in microcentrifuge tubes with 50 μl of indicated amount of B4ECv3 diluted in binding buffer BB (20 mM Tris-HCl, 0.15 M NaCl, 0.1% bovine serum albumin pH 8) After incubation for 30 min on shaking platform, Ni-NTA beads were washed twice with 1.4 ml of BB, followed by application of 50 μl of B2-AP in the final concentration of 50 nM. Binding was performed for 30 min on shaking platform, and then tubes were centrifuged and washed one time with 1.4 ml of BB. Amount of precipitated AP was measured colorimetrically after application of PNPP.
To confirm ability of the purified recombinant proteins to bind Ephrin B2, they were tested in an in vitro binding assay. As expected, GC, GCF1 and GCF2, but not CF2 are binding the cognate ligand Ephrin B2 as confirmed by interaction between Ephrin B2-alkaline phosphatase (Ephrin B2-AP) fusion protein with the B4 proteins immobilized on Ni^2+-resin or on nitrocellulose membrane (FIG. 17).

## COc1cccc(-c2cc(=O)c3ccccc3o2)c1N [PD098095]
EphB4
  EGF stimulated induction of EphB4: no discernible effect
  basal levels of EphB4: reduced

## C[S+]([O-])c1ccc(-c2nc(-c3ccncc3)c(-c3ccc(F)cc3)[nH]2)cc1 (centres unmarked) [SB203580]
EphB4
  basal levels of EphB4: increased

## CCCCCCCCCCCCCCCCCCOC[C@H](COP(=O)(O)O[C@H]1[C@H](O)[C@@H](O)[C@H](O)C[C@H]1OC)OC [SH-5]
EphB4
  EGF stimulated induction of EphB4: blocked
  basal levels of EphB4: reduced

## COc1ccc2c(c1)CC[C@@H]1[C@@H]2CC[C@]2(C)[C@@H](NCCCCCCN3C(=O)C=CC3=O)CC[C@@H]12 [U73122]
EphB4
  EGF stimulated induction of EphB4: blocked
  basal levels of EphB4: reduced

## B2EC-FC: Ephrin B2 extracellular domain fused to human IgG1 Fc fragment, SEQ ID NO:5
HUVEC
  endothelial cell tube / tubule / cord formation: inhibition
Human endothelial cells
  chemotaxis of human endothelial cells: blocked chemotaxis

B1: B2EC: soluble extracellular domain of human Ephrin B2, SEQ ID NO:3 (protein)
chain: MAVRRDSVWKYCWGVLMVLCRTAISKSIVLEPIYWNSSNSKFLPGQGLVLYPQIGDKLDIICPKVDSKTVGQYEYYKVYMVDKDQADRCTIKKENTPLLNCAKPDQDIKFTIKFQEFSPNLWGLEFQKNKDYYIISTSNGSLEGLDNQEGGVCQTRAMKILMKVGQDASSAGSTRNKDPTRRPELEAGTNGRSSTTSPFVKPNPGSSTDGNSAGHSGNNILGSEVGSHHHHHH
modifications: Recombinant B2EC protein
Human endothelial cells
  chemotaxis of human endothelial cells: blocked chemotaxis

B2: GC: EphB4EC deletion variant, globular domain and Cys-rich domain, 6xHis tagged, SEQ ID NO:12 (protein)
chain: MELRVLLCWASLAAALEETLLNTKLETADLKWVTFPQVDGQWEELSGLDEEQHSVRTYEVCEVQRAPGQAHWLRTGWVPRRGAVHVYATLRFTMLECLSLPRAGRSCKETFTVFYYESDADTATALTPAWMENPYIKVDTVAAEHLTRKRPGAEATGKVNVKTLRLGPLSKAGFYLAFQDQGACMALLSLHLFYKKCAQLTVNLTRFPETVPRELVVPVAGSCVVDAVPAPGPSPSLYCREDGQWAEQPVTGCSCAPGFEAAEGNTKCRACAQGTFKPLSGEGSCQPCPANSHSNTIGSAVCQCRVGYFRARTDPRGAPCTTPPSAHHHHHH
modifications: Recombinant B4EC-GC
EphB4 receptor
  EphB4 autophosphorylation: suppresses
EphrinB2
  binding the cognate ligand Ephrin B2: binding

B3: GCF1: EphB4EC variant, globular, Cys-rich and the first FNIII domain, 6xHis tagged, SEQ ID NO:13 (protein)
chain: MELRVLLCWASLAAALEETLLNTKLETADLKWVTFPQVDGQWEELSGLDEEQHSVRTYEVCEVQRAPGQAHWLRTGWVPRRGAVHVYATLRFTMLECLSLPRAGRSCKETFTVFYYESDADTATALTPAWMENPYIKVDTVAAEHLTRKRPGAEATGKVNVKTLRLGPLSKAGFYLAFQDQGACMALLSLHLFYKKCAQLTVNLTRFPETVPRELVVPVAGSCVVDAVPAPGPSPSLYCREDGQWAEQPVTGCSCAPGFAEGNTKCRACAQGTFKPLSGEGSCQPCPANSHSNTIGSAVCQCRVGYFRARTDPRGAPCTTPPSAPRSVVSRLNGSSLHLEWSAPLESGGREDLTYALRCRECRPGGSCAPCGGDLTFDPGPRDLVEPWVVVRGLRPDFTYTFEVTALNGVSSLATGPVPFEPVNVHHHHHH
modifications: Recombinant GCF
EphB4 receptor
  EphB4 autophosphorylation: suppresses
EphrinB2
  binding the cognate ligand Ephrin B2: binding
